Test results taken from patent EP0802730B1, “PESTICIDAL COMPOUNDS” (BTG INTERNATIONAL LIMITED, priority 1995, dated 1996).
Converted amounts (≈) assume the structure as drawn. Marks after values point to notes of the source that are not given here.

These compounds were tested on Houseflies (MD) (Musca domestica) (assay: not given). Details: topical 1 µl drop in acetone on female flies; kill assessed 24 and 48 hours.
Type: in vivo
Protocol: Female flies were treated on the thorax with a one microlitre drop of test compound dissolved in acetone. Two replicates of 15 flies were used at each dose rate and 6 dose rates were used per compound under test. After treatment, the flies were maintained at a temperature of 20° ± 1°C and kill was assessed 24 and 48 hours after treatment. LD50 values were calculated in micrograms of test compound per fly (see Sawicki et al., Bulletin of the World Health Organisation, 35, 893 (1966) and Sawicki et al., Entomologia and Exp. Appli 10, 253, (1967).
For `CCCCCC(C)(C)C1=C(O)C(=O)c2ccccc2C1=O` [Example 18], the “MD (LD50)” value was 13 µg/insect.

What follows are compounds tested on Mustard beetles (PC) (Phaedon cochleariae Fab) (assay: not given). Details: 1 µl acetone drop applied ventrally to adults; kill at 48 hours; NA = lack of detectable activity.
Type: in vivo
Protocol: A one microlitre drop of an acetone solution of the test compound was applied ventrally to adult mustard beetles using a micro drop applicator. The treated insects were maintained for 48 hours after which time kill was assessed. Two replicates each of 20 to 25 mustard beetles were used at each dose level and 5 dose levels were treated comparably. LD50 values were calculated as for houseflies.
`C=CC(C)(C)C1=C(OC(=O)CF)C(=O)c2ccccc2C1=O` [Example 9] was tested, and the “PC (LD50)” value was 0.41 µg/insect. For `CCCCCC(C)(C)C1=C(O)C(=O)c2ccccc2C1=O` [Example 18], the “PC (LD50)” value was “c. 15 µg/insect”.

Same assay, conditions: Tables 10, 13, 14; NA = lack of detectable activity
For `CCCC1=C(O)C(=O)c2ccccc2C1=O` [-(CH2)2CH3, reference compound], the “PC LD50 (µg/insect)” value was “c10 µg/insect”. With `CCCCCC1=C(O)C(=O)c2ccccc2C1=O` [-(CH2)4CH3, reference compound] the “PC LD50 (µg/insect)” value was “c7 µg/insect”. In the case of `CCCCCCCCCCC1=C(O)C(=O)c2ccccc2C1=O` [-(CH2)9CH3, reference compound], the “PC LD50 (µg/insect)” value is reported as 1.9 µg/insect. With `CCCCCCCCCCCC1=C(O)C(=O)c2ccccc2C1=O` [-(CH2)10CH3, reference compound] the “PC LD50 (µg/insect)” value was “c0.4 µg/insect”. For `CC(C)(C)CCC1=C(O)C(=O)c2ccccc2C1=O` [Example 36, 2-(3,3-dimethylbutyl)-3-hydroxy-naphthalene-1,4-dione], the “PC LD50 (µg/insect)” value was 1.3 µg/insect. In the case of `CC(C)(C)C=CC1=C(O)C(=O)c2ccccc2C1=O` [Example 42, 2-(3,3-dimethyl-but-1-enyl)-3-hydroxy-naphthalene-1,4-dione], the “PC LD50 (µg/insect)” value is reported as 3.6 µg/insect.

Same assay, conditions: mustard beetle, in vivo, topical or ocular, 48 h
With `C=CC(C)(C)C1=C(O)C(=NOC)c2ccccc2C1=O` [Example 15] the “PC % Kill at 20 µg/insect” value was 35% *.

Each compound was assayed on Mites (TU) (Tetranychus urticae), susceptible strain (GSS) (assay: Mite immersion test, susceptible strain GSS). Details: 72 h, Tables 10, 13, 14, susceptible strain, NA = lack of detectable activity, read-out: TU LC50 (ppm/insect).
Type: in vivo
Protocol: 25 adult female mites were immersed in 35 µl of a solution of the test compound in a 1:4 acetone-water mixture for 30 seconds. The treated insects were maintained at 21° ± 2°C and kill was assessed 72 hours after treatment. […] Three replicates of 25 mites each were used at each dose rate and 5 or 6 dose rates were used per compound under test. LC50 values were calculated in ppm of the solution of the test compound per insect. The test was carried out using a susceptible strain of mites (GSS) supplied by Schering, AG, Berlin.
With `CCCC1=C(O)C(=O)c2ccccc2C1=O` [-(CH2)2CH3, reference compound] the LC50 was about 1000 µg/mL (≈ 4620 µM). With `CCCCCC1=C(O)C(=O)c2ccccc2C1=O` [-(CH2)4CH3, reference compound] the LC50 was 16 µg/mL (≈ 65.5 µM). Compound `CCCCCCCCCCC1=C(O)C(=O)c2ccccc2C1=O` [-(CH2)9CH3, reference compound] has an LC50 of 5.5 µg/mL (≈ 17.5 µM). With `CCCCCCCCCCCC1=C(O)C(=O)c2ccccc2C1=O` [-(CH2)10CH3, reference compound] the LC50 was 1.4 µg/mL (≈ 4.26 µM). `CCCCCCCCCCCCC1=C(O)C(=O)c2ccccc2C1=O` [-(CH2)11CH3, reference compound] showed an LC50 of under 60 µg/mL. With `CCCCCCCCCCCCCCC1=C(O)C(=O)c2ccccc2C1=O` [-(CH2)13CH3, reference compound] the LC50 was 1.3 µg/mL (≈ 3.51 µM). `CC1(C2=C(O)C(=O)c3ccccc3C2=O)CCCC1` [Example 24, 2-hydroxy-3-(1'-methylcyclopentyl)-naphthalene-1,4-dione] showed an LC50 of 48 µg/mL (≈ 187 µM). With `CC(C)(C)CCC1=C(O)C(=O)c2ccccc2C1=O` [Example 36, 2-(3,3-dimethylbutyl)-3-hydroxy-naphthalene-1,4-dione] the LC50 was 36 µg/mL (≈ 139 µM). `CC(C)(C)CCCC1=C(O)C(=O)c2ccccc2C1=O` [Example 37, 2-(4,4-dimethylpentyl)-3-hydroxy-naphthalene-1,4-dione] showed an LC50 of 2.9 µg/mL (≈ 10.6 µM). `CC(C)(C)C=CC1=C(O)C(=O)c2ccccc2C1=O` [Example 42, 2-(3,3-dimethyl-but-1-enyl)-3-hydroxy-naphthalene-1,4-dione] showed an LC50 of about 100 µg/mL (≈ 390 µM). Work on `CC(C)(C)C=CCCCC1=C(O)C(=O)c2ccccc2C1=O` [Example 43, 2-(6,6-dimethylhep-4-enyl)-3-hydroxy-naphthalene-1,4-dione] yielded an LC50 of 11.5 µg/mL (≈ 38.5 µM). Work on `C=CC(C)(C)CCC1=C(O)C(=O)c2ccccc2C1=O` [Example 50] yielded an LC50 of 6.5 µg/mL (≈ 24 µM).

Same assay, conditions: 72 h, read-out: TU(GSS) (LC50)
`C=CC(C)(C)C1=C(OC(=O)CF)C(=O)c2ccccc2C1=O` [Example 9] gave an LC50 of 140 µg/mL (≈ 463 µM).

Same assay, conditions: ppm solution of test compound, 30 seconds immersion, kill at 72 hours, read-out: TU(GSS) (LC50)
In the case of `C=CC(C)(C)C1=C(OC(=O)c2ccccc2)C(=O)c2ccccc2C1=O` [Example 11], the LC50 is reported as about 50 µg/mL (≈ 144 µM). Work on `CCCCCC(C)(C)C1=C(O)C(=O)c2ccccc2C1=O` [Example 18] yielded an LC50 of about 100 µg/mL (≈ 349 µM).

Each compound was assayed on Whitefly (BT) (Bemisia tabaci), susceptible strain (SUD-S) (assay: Whitefly residual film vial test, susceptible strain SUD-S). Details: 48 h, Tables 10, 13, 14, susceptible strain, NA = lack of detectable activity, read-out: BT LC50 (ppm/insect).
Type: in vivo
Protocol: Acetone solutions (0.100 ml) of the test compounds were placed in 10 ml glass vials and evaporated with rotation to deposit a film of the compound. Thirty adult whiteflies were placed inside the vial, then after 60 minutes, the treated insects were transferred onto untreated cotton leaf discs which were kept moist on a bed of agar gel. The temperature was maintained at 25°C and mortality assessed after 48 hours. Three replicates were used at each of 5 to 7 dose levels per compound.
`CCCC1=C(O)C(=O)c2ccccc2C1=O` [-(CH2)2CH3, reference compound] was tested, and the LC50 was 80 µg/mL (≈ 370 µM). Work on `CCCCCC1=C(O)C(=O)c2ccccc2C1=O` [-(CH2)4CH3, reference compound] yielded an LC50 of 17 µg/mL (≈ 69.6 µM). `CCCCCCCCCCC1=C(O)C(=O)c2ccccc2C1=O` [-(CH2)9CH3, reference compound] gave an LC50 of over 100 µg/mL. Work on `CCCCCCCCCCCC1=C(O)C(=O)c2ccccc2C1=O` [-(CH2)10CH3, reference compound] yielded an LC50 of over 100 µg/mL. `CCCCCCCCCCCCC1=C(O)C(=O)c2ccccc2C1=O` [-(CH2)11CH3, reference compound] was tested, and the LC50 was over 100 µg/mL. With `CC1(C2=C(O)C(=O)c3ccccc3C2=O)CCCC1` [Example 24, 2-hydroxy-3-(1'-methylcyclopentyl)-naphthalene-1,4-dione] the LC50 was 33 µg/mL (≈ 129 µM). `CC(C)(C)CCC1=C(O)C(=O)c2ccccc2C1=O` [Example 36, 2-(3,3-dimethylbutyl)-3-hydroxy-naphthalene-1,4-dione] was tested, and the LC50 was about 7 µg/mL (≈ 27.1 µM). With `CC(C)(C)CCCC1=C(O)C(=O)c2ccccc2C1=O` [Example 37, 2-(4,4-dimethylpentyl)-3-hydroxy-naphthalene-1,4-dione] the LC50 was 16 µg/mL (≈ 58.7 µM). `CC(C)(C)C=CC1=C(O)C(=O)c2ccccc2C1=O` [Example 42, 2-(3,3-dimethyl-but-1-enyl)-3-hydroxy-naphthalene-1,4-dione] was tested, and the LC50 was 17 µg/mL (≈ 66.3 µM). Work on `CC(C)(C)C=CCCCC1=C(O)C(=O)c2ccccc2C1=O` [Example 43, 2-(6,6-dimethylhep-4-enyl)-3-hydroxy-naphthalene-1,4-dione] yielded an LC50 of about 60 µg/mL (≈ 201 µM). Compound `C=CC(C)(C)CCC1=C(O)C(=O)c2ccccc2C1=O` [Example 50] has an LC50 of 16 µg/mL (≈ 59.2 µM).

Same assay, conditions: 48 h, read-out: BT(SUD-S) % Kill at 1000 ppm solution of test compound
`C=CC(C)(C)C1=C(O)C(=NOC)c2ccccc2C1=O` [Example 15] was tested, and the mortality at 1000 ppm was 97%.

Same assay, conditions: 48 h, read-out: BT(SUD-S) (LC50)
Work on `C=CC(C)(C)C1=C(OC(=O)CF)C(=O)c2ccccc2C1=O` [Example 9] yielded an LC50 of 13.4 µg/mL (≈ 44.3 µM).

Same assay, conditions: ppm solution of test compound, 60 minutes film exposure, mortality after 48 hours, read-out: BT(SUD-S) (LC50)
With `CCCCCC(C)(C)C1=C(O)C(=O)c2ccccc2C1=O` [Example 18] the LC50 was 10 µg/mL (≈ 34.9 µM).

The compounds below were run on Myzus persicae, susceptible strain (US1L) (assay: Aphid dip test, susceptible strain). Details: read-out: MP % kill 100 ppm.
Type: in vivo
Protocol: Activity against resistant (R) and susceptible (S) strains of aphid (Myzus persicae) was assessed using the following method.
Entrapment rings of fluon were painted halfway up the inside of 4 cm lengths of glass tubing (1.5 cm diameter), and squares of insect-proof gauze were attached to one end of each tube by elastic bands. Fifteen apterous adults were then gently transferred into the tubes using a sable-hair brush, and the tube sealed with a second gauze square.
Tubes containing aphids were dipped into insecticide solutions for 10 seconds, dried on blotting paper, and then inverted and tapped to cause treated aphids to fall to the unimmersed end of each tube. Handling mortality (usually zero or very slight) was scored after 1 hour, when aphids were transferred onto chinese cabbage leaf-discs (35 mm diameter) on an agar bed (25 mm in depth) in disposible plastic containers (30 mm high) and confined by applying a ring of fluon to the exposed lip of the container. Containers were store upright, without lids, in a constant environment facility maintained at 25°C under continuous room lighting. Mortality was assessed at 24, 48 and 72 hours. Two replicates of 15 aphids each were used at each dose rate and 5 or 6 dose rates were used per compound under test.
The test was carried out using a susceptible strain of aphids (US1L) collected in the field in East Anglia, UK and an extremely resistant strain of aphids (794Jz) (R3 esterase, sensitive AChE) collected from glasshouses in the UK.
The values given are % mortality corrected for control data. The control comprised the test solution without active ingredient.
In the case of `CCCCCCCCCCCCC1=C(O)C(=O)c2ccccc2C1=O` [-(CH2)11CH3, reference compound], the mortality at 100 ppm is reported as 0%. `CC1(C2=C(O)C(=O)c3ccccc3C2=O)CCCC1` [Example 24, 2-hydroxy-3-(1'-methylcyclopentyl)-naphthalene-1,4-dione] gave a mortality at 100 ppm of 44%. `CC(C)(C)CCC1=C(O)C(=O)c2ccccc2C1=O` [Example 36, 2-(3,3-dimethylbutyl)-3-hydroxy-naphthalene-1,4-dione] was tested, and the mortality at 100 ppm was about 24%. `CC(C)(C)CCCC1=C(O)C(=O)c2ccccc2C1=O` [Example 37, 2-(4,4-dimethylpentyl)-3-hydroxy-naphthalene-1,4-dione] showed a mortality at 100 ppm of about 70%. `CC(C)(C)C=CCCCC1=C(O)C(=O)c2ccccc2C1=O` [Example 43, 2-(6,6-dimethylhep-4-enyl)-3-hydroxy-naphthalene-1,4-dione] gave a mortality at 100 ppm of about 100%.
